{"source": "patent US20020064883A1", "about": "“Measurement and quantification of 17 ketosteroid-sulfates as a biomarker of biological age” (priority 2000, published 2002)", "tested_on": "Anabolic/Catabolic Index (ACI)", "assay": "Human clinical trial: effect of treatment on urinary Anabolic/Catabolic Index (ACI)", "assay_type": "in vivo", "method": "The concentration of 17-KS-S in the sample was calculated from the ratio of the peak area of the compound of interest to that of the external standard multiplied by its concentration. The concentration of creatinine in urine was measured by a colorimetric method. The urinary Anabolic/Catabolic Index (ACI=X/Y) was calculated as a ratio of total 17-ketosteroid sulfate concentration (X, ng/μL) to creatinine concentration (Y, μg/μL).\nThere were two objectives in this example. The first was to investigate the ACI-age relationship using baseline information of ACI and the second was to investigate effects of four treatment groups on ACI.\nThere were 71 individuals for treatment allocation. They were identified with a number of 1 through 72 (69 was not used). Of these 71 individuals, five (subject identification numbers=3, 22, 24, 26 and 65) were not included in the data set of ACI measurements. Consequently, there were 66 individuals represented in the ACI information. Among the 66 individuals, three (subject ID=1, 9 and 60) had only baseline measurements. These three individuals contributed to the analysis of age/ACI relationship only. Therefore, the data set for looking at treatment effects consisted of 63 individuals. Not all of the 63 individuals have six serial observations.\nA 24-hour urine specimen was collected from each individual before treatment. The urine specimens were quickly aliquoted, frozen, and immediately shipped on dry ice by overnight service for analysis. A ratio of total 17-ketosteroid sulfate concentration (ng/μL) to creatinine concentration (mg/mL) was calculated and expressed as ACI. Subsequent to treatment urine specimens were collected and analyzed at 24 hours. […] The fitted line has a negative slope (estimate of the slope is −0.061239 and is statistically significant from zero with p-value being equal to 0.0034.). Pearson correlation is estimated to be −0.35510 (p=0.0034). These findings indicate that ACI level decreases with ages between 40 and 65.\nThis part of the analysis was performed to determine if any of three different treatments affect the ACI level. That is to check whether the ACI level changes under and after termination of treatment. There were four treatment groups, referred to as groups 1-4. The individuals in Group 1 were given a placebo. The individuals in Group 2 were treated with 7-keto DHEA (25 mg/day dosage). The individuals in Group 3 were treated with Longevity Signal Formula (LSV) (2.008 mg/day dosage). The individuals in Group 4 were treated with Longevity Signal Formula (LSV) and Renewal Herbal Formula (Renewal).\nFIG. 5 illustrates the plots of the individual profile for each treatment group for weeks 1-5. Each individual's serial observations are connected with a line to emphasize the trend over time. Measurements at week zero represent ACI prior treatment. Measurements at weeks 1-4 represent the ACI level after receiving treatments for 1-4 weeks respectively. Measurements at week 5 represent the ACI level three days after termination of treatment. FIG. 6 plots the mean responses at each point in time plus two standard errors."}
{"smiles": "C[C@]12CC[C@H](O)CC1=CC(=O)[C@@H]1[C@@H]2CC[C@]2(C)C(=O)CC[C@@H]12", "note": "[7-keto DHEA]", "values": [{"measurement": "Effect of treatment on ACI level (in words)", "setting": "under treatment, weeks 1-4 vs baseline", "value": "does not change the ACI level at all"}, {"measurement": "Mean of difference in ACI", "setting": "week 1 − week 0 (week 0 = baseline; paired t-test)", "value": "−0.04"}, {"measurement": "Mean of difference in ACI", "setting": "week 2 − week 0", "value": 0.20}, {"measurement": "Mean of difference in ACI", "setting": "week 2 − week 1", "value": 0.23}, {"measurement": "Mean of difference in ACI", "setting": "week 3 − week 0", "value": "−0.12"}, {"measurement": "Mean of difference in ACI", "setting": "week 3 − week 1", "value": "−0.08"}, {"measurement": "Mean of difference in ACI", "setting": "week 3 − week 2", "value": "−0.31"}, {"measurement": "Mean of difference in ACI", "setting": "week 4 − week 0", "value": "−0.12"}, {"measurement": "Mean of difference in ACI", "setting": "week 4 − week 1", "value": "−0.09"}, {"measurement": "Mean of difference in ACI", "setting": "week 4 − week 2", "value": "−0.32"}, {"measurement": "Mean of difference in ACI", "setting": "week 4 − week 3", "value": "−0.01"}, {"measurement": "Mean of difference in ACI", "setting": "week 5 − week 0 (week 5 = three days after termination of treatment)", "value": "−0.10"}, {"measurement": "Mean of difference in ACI", "setting": "week 5 − week 1", "value": "−0.07"}, {"measurement": "Mean of difference in ACI", "setting": "week 5 − week 2", "value": "−0.30"}, {"measurement": "Mean of difference in ACI", "setting": "week 5 − week 3", "value": 0.01}, {"measurement": "Mean of difference in ACI", "setting": "week 5 − week 4", "value": 0.02}]}
